Where two headings read alike, the source gives them in different places.
Molecular target: T1, human recombinant mGluR5 receptor (Homo sapiens, UniProt P41594)
T1 construct: expressed in transfected cells; expression induced with doxycycline
Assay: mGluR5 in vitro functional assay (aequorin cell line, inhibition of glutamate EC80 response)
Format: cell-based
Settings: aequorin cell line expressing human mGluR5, reference agonist glutamate at EC80, obtained in duplicate, read-out: IC50
Experimental: B. mGluR5 In Vitro Functional Assay
The functional assay utilized an aequorin cell line expressing human recombinant mGluR5 receptor, an inducible cell line that expresses the human receptor under the control of a promoter induced by doxycycline.
mGluR5 cells in mid-log phase, grown 18 hours prior to the test in antibiotic-free media supplemented with doxycycline (600 ng/mL), were detached by gentle flushing with PBS-EDTA ([…]). The cells were recovered by centrifugation and resuspended in assay buffer (HBSS, […], 3 ug/mL glutamate-pyruvate transaminase, […] MEM sodium pyruvate, 0.1% BSA protease-free). Cells were incubated at room temperature for at least 4 hours with Coelenterazine h (Molecular Probes). The cell suspension (60 uL) containing the test compound was mixed with a solution of reference agonist (30 uL) at its EC80, following an incubation of 3 min. after the first injection. The resulting emission of light was recorded using a Hamamatsu Functional Drug Screening System 6000 (FDSS 6000). To standardize the emission of recorded light (determination of the “100% signal’) across plates and across different experiments, some of the wells contained 100 uM digitonin or a saturating concentration (20 mM) of ATP. Plates also contained the reference agonist (glutamate) at a concentration equivalent to the EC80 obtained during assay validation. Percentages of inhibition were calculated on the basis of the activation induced by the reference agonist at a concentration equal to the EC80. Dose-response data were analyzed with XLFit (IDBS) software using nonlinear regression applied to a sigmoidal dose-response model.

T1 sequence (P41594 21-1212): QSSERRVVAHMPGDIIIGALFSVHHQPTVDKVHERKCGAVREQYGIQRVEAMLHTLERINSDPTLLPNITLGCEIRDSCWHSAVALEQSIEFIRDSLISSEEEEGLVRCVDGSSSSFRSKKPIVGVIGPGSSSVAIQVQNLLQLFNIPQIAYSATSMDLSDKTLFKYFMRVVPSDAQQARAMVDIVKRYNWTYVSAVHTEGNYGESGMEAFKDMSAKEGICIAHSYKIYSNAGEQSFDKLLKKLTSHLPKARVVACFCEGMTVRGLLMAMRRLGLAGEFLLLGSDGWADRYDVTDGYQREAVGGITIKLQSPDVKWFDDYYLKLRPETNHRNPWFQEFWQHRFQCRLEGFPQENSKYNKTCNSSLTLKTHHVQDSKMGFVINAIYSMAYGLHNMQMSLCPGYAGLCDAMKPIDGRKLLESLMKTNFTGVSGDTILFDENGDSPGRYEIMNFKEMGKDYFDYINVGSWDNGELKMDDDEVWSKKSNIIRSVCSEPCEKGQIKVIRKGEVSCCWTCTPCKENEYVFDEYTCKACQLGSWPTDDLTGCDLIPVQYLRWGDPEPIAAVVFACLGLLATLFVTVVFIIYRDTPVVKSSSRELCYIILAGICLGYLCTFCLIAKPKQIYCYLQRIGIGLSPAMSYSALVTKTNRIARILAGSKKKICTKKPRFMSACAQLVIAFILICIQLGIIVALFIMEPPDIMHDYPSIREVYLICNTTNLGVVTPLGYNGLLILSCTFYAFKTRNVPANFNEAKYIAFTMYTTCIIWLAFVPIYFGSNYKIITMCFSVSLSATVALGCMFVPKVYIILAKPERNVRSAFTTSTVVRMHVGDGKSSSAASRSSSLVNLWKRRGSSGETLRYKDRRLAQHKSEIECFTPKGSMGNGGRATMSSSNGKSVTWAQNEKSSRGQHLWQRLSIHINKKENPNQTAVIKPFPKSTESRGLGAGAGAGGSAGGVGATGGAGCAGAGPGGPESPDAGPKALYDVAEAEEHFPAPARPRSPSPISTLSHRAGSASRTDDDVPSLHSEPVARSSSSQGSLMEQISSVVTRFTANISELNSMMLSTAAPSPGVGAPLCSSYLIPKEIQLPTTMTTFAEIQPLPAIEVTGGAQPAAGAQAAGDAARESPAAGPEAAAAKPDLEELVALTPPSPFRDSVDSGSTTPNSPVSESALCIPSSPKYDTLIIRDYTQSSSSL

Row | IC50 (Table 1) [nM] | IC50 (Table 2) [nM] | SMILES
1 | < 1000 |  | CC1Cc2nc(-c3ccccn3)oc2CN1c1cc(F)cc(C#N)c1 (stereo not drawn) [Compound 83, 3-Fluoro-5-(6-methyl-2-(pyridin-2-yl)-6,7-dihydrooxazolo[5,4-c]pyridin-5(4H)-yl)benzonitrile]
2 |  | < 1000 | N#Cc1cc(O)cc(N2CCCc3oc(-c4ccccn4)nc3C2)c1 [Compound 214, 3-Hydroxy-5-(2-(pyridin-2-yl)-7,8-dihydro-4H-oxazolo[4,5-c]azepin-5(6H)-yl)benzonitrile]
3 |  | < 1000 | Fc1cccc(N2CCc3oc(-c4ccccn4)nc3C2)c1 [Compound 116, 5-(3-fluorophenyl)-2-(pyridin-2-yl)-4,5,6,7-tetrahydrooxazolo[4,5-c]pyridine]
4 |  | < 1000 | Fc1ccc([C@H]2CCc3oc(-c4ccccn4)nc3C2)c(Cl)c1 (single isomer, unassigned) [Compound 225]
5 | < 10000 |  | Clc1cccc(-c2nc3c(o2)CCN(Cc2ccccn2)C3)c1 [Compound 50, 2-(3-Chlorophenyl)-5-(pyridin-2-ylmethyl)-4,5,6,7-tetrahydrooxazolo[4,5-c]pyridine]
6 | > 10000 |  | N#Cc1cccc(N2CCc3oc(-c4ccncc4)nc3C2)c1 [Compound 78, 3-(2-(Pyridin-4-yl)-6,7-dihydrooxazolo[4,5-c]pyridin-5(4H)-yl)benzonitrile]
7 | < 10000 |  | Fc1cc(-c2ccncc2)cc(N2CCc3nc(-c4ccccn4)oc3C2)c1 [Compound 14, 5-(3-Fluoro-5-(pyridin-4-yl)phenyl)-2-(pyridin-2-yl)-4,5,6,7-tetrahydrooxazolo[5,4-c]pyridine]
8 | < 1000 |  | Fc1cc(F)cc(N2CCc3nc(-c4ccccn4)oc3C2)c1 [Compound 17, 5-(3,5-Difluorophenyl)-2-(pyridin-2-yl)-4,5,6,7-tetrahydrooxazolo[5,4-c]pyridine]
9 | < 1000 |  | COc1cc(C#N)cc(N2CCCc3nc(-c4ccccn4)oc3C2)c1 [Compound 91, 3-Methoxy-5-(2-(pyridin-2-yl)-7,8-dihydro-4H-oxazolo[5,4-c]azepin-5(6H)-yl)benzonitrile]
10 |  | < 1000 | Clc1cc(Cl)cc(N2CCc3oc(-c4ccccn4)nc3C2)c1 [Compound 162, 5-(3,5-Dichlorophenyl)-2-(pyridin-2-yl)-4,5,6,7-tetrahydrooxazolo[4,5-c]pyridine]
11 |  | < 1000 | [2H]c1c(F)c([2H])c(N2CCCc3oc(-c4ccccn4)nc3C2)c([2H])c1C#N [Compound 210, 2,4,6-d3-3-Fluoro-5-(2-(pyridin-2-yl)-7,8-dihydro-4H-oxazolo[4,5-c]azepin-5(6H)-yl)benzonitrile]
12 |  | < 1000 | Clc1cccc(N2CCc3oc(-c4ccccn4)nc3C2)c1Cl [Compound 170, 5-(2,3-Dichlorophenyl)-2-(pyridin-2-yl)-4,5,6,7-tetrahydrooxazolo[4,5-c]pyridine]
13 |  | < 1000 | Fc1ccc(N2CCc3oc(-c4ccccn4)nc3C2)cc1Cl [Compound 146, 5-(3-chloro-4-fluorophenyl)-2-(pyridin-2-yl)-4,5,6,7-tetrahydrooxazolo[4,5-c]pyridine]
14 | < 1000 |  | N#Cc1cccc(N2Cc3nc(-c4ccccn4)oc3C2)c1 [Compound 84, 3-(2-(Pyridin-2-yl)-4H-pyrrolo[3,4-d]oxazol-5(6H)-yl)benzonitrile]
15 |  | < 10000 | Clc1ccccc1N1CCc2oc(-c3ccncn3)nc2C1 [Compound 168, 5-(2-Chlorophenyl)-2-(pyrimidin-4-yl)-4,5,6,7-tetrahydrooxazolo[4,5-c]pyridine]
16 | < 1000 |  | Fc1cccc(N2CCn3nc(-c4ccccn4)nc3C2)c1 [Compound 114, 7-(3-Fluorophenyl)-2-(pyridin-2-yl)-5,6,7,8-tetrahydro-[1,2,4]triazolo[1,5-a]pyrazine]
17 | > 10000 |  | N#Cc1cccc(-c2nc3c(o2)CN(c2ccccn2)C3)c1 [Compound 86, 3-(5-(Pyridin-2-yl)-5,6-dihydro-4H-pyrrolo[3,4-d]oxazol-2-yl)benzonitrile]
18 |  | < 1000 | Fc1cc(Cl)cc(N2CCCc3oc(-c4ncccn4)nc3C2)c1 [Compound 202, 5-(3-Chloro-5-fluorophenyl)-2-(pyrimidin-2-yl)-5,6,7,8-tetrahydro-4H-oxazolo[4,5-c]azepine]
19 |  | < 1000 | N#Cc1cc(F)cc(N2CCCc3oc(-c4ccncn4)nc3C2)c1 [Compound 138, 3-fluoro-5-(2-(pyrimidin-4-yl)-7,8-dihydro-4H-oxazolo[4,5-c]azepin-5(6H)-yl)benzonitrile]
20 |  | < 1000 | Fc1ccc(N2CCCc3oc(-c4ccccn4)nc3C2)cc1Cl [Compound 144, 5-(3-chloro-4-fluorophenyl)-2-(pyridin-2-yl)-5,6,7,8-tetrahydro-4H-oxazolo[4,5-c]azepine]

Row | IC50 (Table 1) [nM] | IC50 (Table 2) [nM] | SMILES
21 |  | < 1000 | Cc1nc(-c2nc3c(o2)CCCN(c2cc(F)cc(C#N)c2)C3)cs1 [Compound 145, 3-fluoro-5-(2-(2-methylthiazol-4-yl)-7,8-dihydro-4H-oxazolo[4,5-c]azepin-5(6H)-yl)benzonitrile]
22 | < 10000 |  | COc1cccc(-c2nc3c(o2)CN(c2ccccn2)CC3)c1 [Compound 71, 2-(3-Methoxyphenyl)-5-(pyridin-2-yl)-4,5,6,7-tetrahydrooxazolo[5,4-c]pyridine]
23 | < 1000 |  | N#Cc1ccnc(N2CCc3oc(-c4ccccn4)nc3C2)c1 [Compound 24, 2-(2-(Pyridin-2-yl)-6,7-dihydrooxazolo[4,5-c]pyridin-5(4H)-yl)isonicotinonitrile]
24 |  | < 10000 | O=C(CN1CCc2oc(-c3cccc(Cl)c3)nc2C1)c1ccc(F)cc1 [Compound 190, 2-(2-(3-Chlorophenyl)-6,7-dihydrooxazolo[4,5-c]pyridin-5(4H)-yl)-1-(4-fluorophenyl)ethanone]
25 | < 10000 |  | c1ccc(-c2nc3c(o2)CN(c2ccccn2)CC3)nc1 [Compound 2, 2,5-Di(pyridin-2-yl)-4,5,6,7-tetrahydro-oxazolo[5,4-c]pyridine]
26 | > 10000 |  | N#Cc1cccnc1N1CCc2oc(-c3ccc(C(F)(F)F)cc3)nc2C1 [Compound 44, 2-(2-(4-(Trifluoromethyl)phenyl)-6,7-dihydrooxazolo[4,5-c]pyridin-5(4H)-yl)nicotinonitrile]
27 |  | < 1000 | Fc1ccc(N2CCCc3oc(-c4ccccn4)nc3C2)cc1F [Compound 197, 5-(3,4-Difluorophenyl)-2-(pyridin-2-yl)-5,6,7,8-tetrahydro-4H-oxazolo[4,5-c]azepine]
28 | < 1000 |  | N#Cc1cccc(-c2nc3c(o2)CN(c2cccc(C#N)c2)CC3)c1 [Compound 67, 3,3′-(6,7-Dihydrooxazolo[5,4-c]pyridine-2,5(4H)-diyl)dibenzonitrile]
29 |  | < 1000 | N#Cc1cc(F)cc(C2CCc3oc(-c4ccccn4)nc3C2)c1 (stereo not drawn) [Compound 222, 3-Fluoro-5-(2-(pyridin-2-yl)-4,5,6,7-tetrahydrobenzo[d]oxazol-5-yl)benzonitrile]
30 |  | < 1000 | c1ccc(-c2nc3c(o2)CCN(c2cccnc2)C3)nc1 [Compound 154, 2-(Pyridin-2-yl)-5-(pyridin-3-yl)-4,5,6,7-tetrahydrooxazolo[4,5-c]pyridine]
31 |  | < 1000 | N#Cc1ccccc1N1CCc2oc(-c3ccccn3)nc2C1 [Compound 180, 2-(2-(Pyridin-2-yl)-6,7-dihydrooxazolo[4,5-c]pyridin-5(4H)-yl)benzonitrile]
32 | < 1000 |  | N#Cc1cccc(N2CCn3cc(-c4ccccn4)nc3C2)c1 [Compound 110, 3-(2(Pyridin-2-yl)-5,6-dihydroimidazo[1,2-a]pyrazin-7(8H)-yl)benzonitrile]
33 |  | < 1000 | Fc1ccc(-c2nc3c(o2)CCCN(c2cccc(Cl)c2)C3)nc1 [Compound 134, 5-(3-chlorophenyl)-2-(5-fluoropyridin-2-yl)-5,6,7,8-tetrahydro-4H-oxazolo[4,5-c]azepine]
34 | < 10000 |  | N#Cc1cccnc1N1CCc2nc(-c3ccccc3Cl)oc2C1 [Compound 69, 2-(2-(2-Chlorophenyl)-6,7-dihydrooxazolo[5,4-c]pyridin-5(4H)-yl)nicotinonitrile]
35 |  | > 10000 | COC(=O)N1CCc2oc(-c3ccccn3)nc2C1 [Compound 151, Methyl 2-(pyridin-2-yl)-6,7-dihydrooxazolo[4,5-c]pyridine-5(4H)-carboxylate]
36 |  | < 1000 | CC1CCN(c2cc(F)cc(C#N)c2)Cc2nc(-c3ccccn3)oc21 (stereo not drawn) [Compound 215, 3-Fluoro-5-(8-methyl-2-(pyridin-2-yl)-7,8-dihydro-4H-oxazolo[4,5-c]azepin-5(6H)-yl)benzonitrile]
37 | > 10000 |  | COc1ccc(-c2nc3c(o2)CCN(c2cnccn2)C3)cc1 [Compound 42, 2-(4-Methoxyphenyl)-5-(pyrazin-2-yl)-4,5,6,7-tetrahydrooxazolo[4,5-c]pyridine]
38 | < 10000 |  | N#Cc1cccnc1N1CCn2cc(-c3cccc(Cl)c3)nc2C1 [Compound 108, 2-(2-(3-Chlorophenyl)-5,6-dihydroimidazo[1,2-a]pyrazin-7(8H)-yl)nicotinotrile]
39 | < 1000 |  | c1ccc(-c2nc3c(o2)CCN(c2nccs2)C3)nc1 [Compound 55, 2-(Pyridin-2-yl)-5-(thiazol-2-yl)-4,5,6,7-tetrahydrooxazolo[4,5-c]pyridine]

From US20120029190A1, “COMPOUNDS FOR TREATING DISORDERS MEDIATED BY METABOTROPIC GLUTAMATE RECEPTOR 5, AND METHODS OF USE THEREOF” (priority 2009, published 2012)
